Measured values reported in ChEMBL document CHEMBL6121047, “Design, Synthesis, and Evaluation of Selective PDE4 Inhibitors for the Therapy of Pulmonary Injury” (J Med Chem, 2025).
The source made the active and inactive calls. No cut-off for these calls is given here.

Key:
Mus musculus [1] = assay: Anti-inflammatory activity against LPS-induced acute lung injury male BALB/c mouse model assessed as enlarged bronchiole tubes in lung at 8 to 32 mg/kg administered once a day via gavage for 7 days followed by LPS stimulation and measured after 24 hrs by H and E staining based microscopic analysis; type: functional, organism-based; settings: dose 8-32 mg/kg, time 192.0 hrs
Mus musculus [2] = assay: (§1) Anti-inflammatory activity against cigarette-smoke/LPS-induced COPD male C57BL/6 mouse model assessed as reduction in TNF-alpha level in BALF at 5 mg/kg pretreated with cigarette smoke exposure for 21 weeks with subsequent LPS induction twice on the first and 15th day followed by compound administration every day via gavage for 4 weeks; type: functional, organism-based
Mus musculus [3] = assay: Enhancement of sputum secretion in male BALB/c mouse model assessed as increase in phenol red secretion in BALF at 4 to 32 mg/kg administered every day via gavage for 7 days followed by phenol red administration at 1 hrs post last dose and measured after 30 mins; type: functional, organism-based; settings: dose 4-32 mg/kg, time 169.5 hrs
RAW264.7 [4] = assay: Anti-inflammatory activity in LPS-induced mouse RAW264.7 cells assessed as decrease in p-p38 MAPK protein level by Western blotting analysis; type: functional, cell-based
RAW264.7 [5] = assay: Anti-inflammatory activity in LPS-induced mouse RAW264.7 cells assessed as decrease in p38 MAPK protein level by Western blotting analysis; type: functional, cell-based
[6] = AUC (0 to infinity) in Sprague-Dawley rat at 10 mg/kg, po measured upto 24 hrs by LC-MS/MS analysis; type: ADME, organism-based; settings: in vivo
Mus musculus [7] = assay: Antifibrotic activity against LPS-induced acute lung injury male BALB/c mouse model assessed as decrease in collagen deposition at 8 to 32 mg/kg administered once a day via gavage for 7 days followed by LPS stimulation and measured after 24 hrs by masson staining based microscopic analysis; type: functional, organism-based; settings: dose 8-32 mg/kg, time 192.0 hrs
BEAS-2B = assay: Anti-inflammatory activity in LPS-induced human BEAS-2B cells assessed as inhibition of IL-6 secretion level at 10 uM preincubated with compound for 1 hr followed by LPS addition and measured after 24 hrs by ELISA; type: functional, cell-based; settings: time 25.0 hrs
Mus musculus [8] = assay: Anti-inflammatory activity against LPS-induced acute lung injury male BALB/c mouse model assessed as restoration of alveolar septa in lung at 8 to 32 mg/kg administered once a day via gavage for 7 days followed by LPS stimulation and measured after 24 hrs by H and E staining based analysis; type: functional, organism-based; settings: dose 8-32 mg/kg, time 192.0 hrs
[9] = Toxicity in female Beagle dog assessed as drug tolerance at 1 to 3 mg/kg, po administered once via gavage and measured within 24 hrs; type: organism-based, Canis lupus familiaris; settings: in vivo, dose 1-3 mg/kg
[10] = target: 3',5'-cyclic-AMP phosphodiesterase 4A (Homo sapiens, UniProt P27815); assay: Inhibition of PDE4A (unknown origin) using FAM-cAMP as substrate preincubated with compound for compound for 15 mins followed by substrate addition and measured after 30 mins by Envision multilabel reader analysis
[11] = Half life in Sprague-Dawley rat at 10 mg/kg, po measured upto 24 hrs by LC-MS/MS analysis; type: ADME, organism-based; settings: in vivo
RAW264.7 [12] = assay: Anti-inflammatory activity in LPS-induced mouse RAW264.7 cells assessed as inhibition of TNF-alpha secretion level at 10 uM preincubated with compound for 1 hr followed by LPS addition and measured after 24 hrs by ELISA; type: functional, cell-based; settings: time 25.0 hrs
RAW264.7 [13] = assay: Cytotoxicity against mouse RAW264.7 cells assessed as reduction in cell viability incubated for 24 hrs by CCK-8 assay; type: toxicity, cell-based; settings: raw264.7, 24 h
RAW264.7 [14] = assay: Anti-inflammatory activity against cigarette-smoke/LPS-induced mouse RAW264.7 cells assessed as inhibition of phosphorylated p38 MAPK protein expression by Western blotting analysis; type: functional, cell-based
HepG2 = assay: Cytotoxicity against human HepG2 cells assessed as reduction in cell viability incubated for 24 hrs by CCK-8 assay; type: toxicity, cell-based; settings: hepg2, 24 h
RAW264.7 [15] = assay: cells; settings: Mus musculus
[16] = Tmax in Sprague-Dawley rat at 10 mg/kg, po measured upto 24 hrs by LC-MS/MS analysis; type: ADME, organism-based; settings: in vivo
[17] = Acute toxicity in Sprague-Dawley rat assessed as effect on apparent spleen coefficient change at 1 g/Kg, po administered via gavage; type: organism-based; settings: in vivo, 1000 mg/kg
[18] = Acute toxicity in Sprague-Dawley rat assessed as pathological changes in lung at 1 g/Kg, po administered via gavage by H and E staining based analysis; type: organism-based; settings: in vivo, 1000 mg/kg
[19] = Metabolic stability in dog liver microsomes assessed as half life incubated for 4 hrs in presence of NADPH by LC-MS analysis; type: ADME, Canis lupus familiaris, Microsome
[20] = Initial plasma concentration in Sprague-Dawley rat at 5 mg/kg, iv measured upto 24 hrs by LC-MS/MS analysis; type: ADME, organism-based
[21] = Acute toxicity in Sprague-Dawley rat assessed as pathological changes in heart at 1 g/Kg, po administered via gavage by H and E staining based analysis; type: organism-based; settings: in vivo, 1000 mg/kg
Mus musculus [22] = assay: as §1, with “reduction in bronchiole thickness at 5” for “reduction in TNF-alpha level in BALF at 5”, “4 weeks by H and E staining based microscopic analysis” for “4 weeks”; type: functional, organism-based
[23] = AUC (0 to t) in Sprague-Dawley rat at 10 mg/kg, po measured upto 24 hrs by LC-MS/MS analysis; type: ADME, organism-based; settings: in vivo
Mus musculus [24] = assay: Antitussive activity in male BALB/c mouse model assessed as delay in cough incubation period at 32 mg/kg administered every day via gavage for 7 days at 1 hrs post last dose and measured within 3 min; type: functional, organism-based; settings: time 169.05 hrs
[25] = AUC (0 to t) in Sprague-Dawley rat at 5 mg/kg, iv measured upto 24 hrs by LC-MS/MS analysis; type: ADME, organism-based; settings: in vivo
[26] = Acute toxicity in Sprague-Dawley rat assessed as effect on apparent liver coefficient change at 1 g/Kg, po administered via gavage; type: organism-based; settings: in vivo, 1000 mg/kg

Sequence of 3',5'-cyclic-AMP phosphodiesterase 4A (P27815 whole entry): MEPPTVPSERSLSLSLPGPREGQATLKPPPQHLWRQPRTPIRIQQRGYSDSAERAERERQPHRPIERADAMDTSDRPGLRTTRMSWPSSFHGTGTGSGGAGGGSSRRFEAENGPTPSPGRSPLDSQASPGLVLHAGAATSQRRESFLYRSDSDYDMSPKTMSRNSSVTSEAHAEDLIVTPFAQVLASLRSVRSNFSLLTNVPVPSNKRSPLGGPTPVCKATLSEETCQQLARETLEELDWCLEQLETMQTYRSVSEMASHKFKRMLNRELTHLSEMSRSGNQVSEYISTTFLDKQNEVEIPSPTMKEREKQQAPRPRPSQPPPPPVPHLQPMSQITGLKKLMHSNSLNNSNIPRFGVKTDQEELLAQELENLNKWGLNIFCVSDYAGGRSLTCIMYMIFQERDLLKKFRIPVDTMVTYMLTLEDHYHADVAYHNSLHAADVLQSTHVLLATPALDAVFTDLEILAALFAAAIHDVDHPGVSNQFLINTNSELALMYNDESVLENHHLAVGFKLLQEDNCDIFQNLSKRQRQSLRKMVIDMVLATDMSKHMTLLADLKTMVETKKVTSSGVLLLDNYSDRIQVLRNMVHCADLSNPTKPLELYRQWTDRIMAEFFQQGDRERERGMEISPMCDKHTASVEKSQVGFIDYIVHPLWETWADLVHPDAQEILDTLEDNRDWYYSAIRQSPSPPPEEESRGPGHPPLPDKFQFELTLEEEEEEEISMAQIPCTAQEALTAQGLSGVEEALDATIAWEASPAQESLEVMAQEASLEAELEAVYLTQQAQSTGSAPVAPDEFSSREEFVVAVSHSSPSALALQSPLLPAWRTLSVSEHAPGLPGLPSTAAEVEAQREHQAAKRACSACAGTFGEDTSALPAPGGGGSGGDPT

With `O=C(Nc1nccs1)c1cccc2[nH]c(-c3ccc(OC(F)F)c(OCC4CC4)c3)nc12` the Activity (Mus musculus [1]) was “Active”, the Activity (Mus musculus [2]) was “Active” and the Activity (Mus musculus [3]) was “Active”. For the same compound, the Activity (RAW264.7 [4]) was “Active”, the Activity (RAW264.7 [5]) was “Active” and the AUC(0-inf) [6] was 2160 ng·h/mL. The Activity (Mus musculus [7]) was “Active”, the Activity (BEAS-2B) was “Active” and the Activity (Mus musculus [8]) was “Active”. For the same compound, the Activity [9] was “Non-toxic”, the IC50 [10] was 0.0897 µM and the half-life [11] was 3.75 h. The Activity (RAW264.7 [12]) was “Active”, the Activity (RAW264.7 [13]) was “Non-toxic” and the Activity (RAW264.7 [14]) was “Active”. The Activity (HepG2) was “Non-toxic”, the IC50 (RAW264.7 [15]) was 30.1 µM and the Tmax [16] was 3 h. For the same compound, the Activity [17] was “Non-toxic”, the Activity [18] was “Non-toxic” and the half-life [19] was 0.721 h. For the same compound, the C0 at 24 h [20] was 38100 ng/mL, the Activity [21] was “Non-toxic” and the Activity (Mus musculus [22]) was “Active”. The AUC(0-t) at 24 h [23] was 2130 ng·h/mL, the Activity (Mus musculus [24]) was “Active” and the AUC(0-t) at 24 h [25] was 23200 ng·h/mL. The Activity [26] was “Non-toxic”.
